Laboratory results published in article PMC8960621, “Solution speciation and human serum protein binding of indium(III) complexes of 8-hydroxyquinoline, deferiprone and maltol” (Journal of Biological Inorganic Chemistry, 2022).
Marks after values point to notes of the source that are not given here.

Assays:
[1] = pH-potentiometric titrations: proton dissociation constants of the ligands and overall stability constants of their In(III) complexes; type: physicochemical; settings: pH-pot, T = 25.0 °C, I = 0.20 M (KCl); for logβ [InL2] / logβ [InL3] / logβ [InL]: In(III) complex of the ligand L; for pKa: water
Protocol: (§1) To characterize the solution stability of the In(III) complexes, pH-potentiometric and UV–vis spectrophotometric titrations were performed in water in the presence of 0.20 M chloride ions. However, stability constants for the HQ complexes could be obtained only by the latter method due to their much worse water solubility compared to the other compounds. HQS was involved as a water-soluble analogue of HQ bearing identical coordination mode. Stability constants of deferiprone were also determined by both methods in the present work to validate our experimental setup and data treatment, since the In(III) ‒ deferiprone system was already characterized by Orvig and collaborators. The hydrolysis of In(III) and its interaction with chloride ions were taken into consideration, and stability constants of the hydoxido and chlorido complexes were utilized for our calculations. As a first step, the proton dissociation constants (Ka) were determined for the ligands (Table 1) showing good agreement with the previously published data (see Table 1). The overall stability constants obtained for the octahedral In(III)-deferiprone complexes by both methods (Table 1) are fairly similar to those reported at 150 mM NaCl. […] Complexes with the same stoichiometry were also formed with the O,N-donor containing HQS (Table 1). […] Stability constants for the HQ complexes (Table 1) were determined by the deconvolution of UV–vis spectra recorded at various pH values (Fig. 1a), and the computed molar absorbance spectra for the individual ligand and complex species are shown in Fig. 1b. Due to the lack of d-d or charge transfer bands, the molar absorbance spectra of the complexes represent similar λmax values to that of the completely deprotonated form of the ligand; although, the shape of the spectra is different and is quite similar to that was found for the Ga(III) complexes.
The pH-potentiometric measurements for the determination of the proton dissociation constants of the ligands (HQS, maltol, deferiprone) and the overall stability constants of their In(III) complexes were carried out at 25.0 ± 0.1 °C in water at an ionic strength of 0.20 M (KCl, Sigma-Aldrich). The titrations were performed with a carbonate-free KOH solution of known concentration (0.20 M). An Orion 710A pH-meter equipped with a Metrohm combined electrode (type 6.0234.100) and a Metrohm 665 Dosimat burette were used for the pH-potentiometric measurements. […] The average water ionization constant, pKw, is 13.76 ± 0.01, which corresponds well to literature data. The reproducibility of the titration points included in the calculations was within 0.005 pH units. The pH-potentiometric titrations were performed in the pH range 2.0–11.5. The initial volume of the samples was 10.0 mL, and the ligand concentration was 3 mM and metal ion-to-ligand ratios of 1:1 to 1:4 were used. The fitting of the titration curves was less than 0.01 mL. (The fitting parameter is the average difference between the experimental and calculated titration curves expressed in the volume of the titrant.) Samples were deoxygenated by bubbling purified argon through them for ca. 10 min prior to the measurements. The proton dissociation constants of the ligands, the stoichiometry and the overall stability constants of the complexes were determined with the computer program HYPERQUAD [60]. Overall stability constants of the complexes (β(MpLqHr)) is defined for the general equilibrium pM + qL + rH ⇌ MpLqHr as β (MpLqHr) = [MpLqHr]/[M]^p[L]^q[H]^r where M denotes the metal ion and L the completely deprotonated ligand. Hydrolysis constants for In(III) and stability constants for the In(III)-chlorido complexes (Table 1) are taken from references. The calculations were always made from the experimental titration data measured in the absence of any precipitate in the solution.

[2] = UV-vis spectrophotometric titrations: proton dissociation constants of the ligands and overall stability constants of their In(III) complexes; type: physicochemical; settings: T = 25.0 °C, I = 0.20 M (KCl); for logβ [InL2] / logβ [InL3] / logβ [InL]: In(III) complex of the ligand L; for pKa: water
Protocol: as §1
Proton dissociation of the ligands (HQ, HQS, maltol, deferiprone) and overall stability constants and the individual spectra of their complexes were calculated with the computer program PSEQUAD [43]. The spectrophotometric titrations were performed on samples of the ligands with or without In(III); the concentration of the ligands was 0.10 mM, and the metal-to-ligand ratios were 1:1, 1:2, 1:3 and 1:4 over the pH range used in pH-potentiometric measurements at 25.0 ± 0.1 °C at an ionic strength of 0.20 M (KCl).

[3] = pM* / pM values computed at pH 7.4 from stability constants; type: physicochemical; settings: for pIn (pM = –log[M(III)]): Table S1, does not account for hydrolysis of the metal ion; for pGa* (−log([M] + [M(OH)(1–4)])): pH 7.4, 1 μM Ga(III), computed from stability constants of Ref. 27 (deferiprone) or Ref. 29 (maltol, HQS, HQ); for pGa* (−log([M] + [M(OH)(1–4)])) / pIn* (−log([M] + [M(OH)(1–4)])): 10 μM ligand; for pIn* (−log([M] + [M(OH)(1–4)])): pH 7.4, 1 μM In(III)
Protocol: To compare the In(III) binding ability of the studied four ligands, pIn* (= negative decadic logarithm of the equilibrium concentration of the unbound metal species) values were calculated at pH 7.4 using the determined stability constants (Table 1).
Table S1. Calculated pM values for the studied In(III) complexes and their Ga analogues,
a Computed on the basis of stability constants taken from Ref. [27]. b Computed on the basis of stability
constants taken from Ref. [29] […]

[4] = design: method as in PMID 25398250; settings: same LMM competitors in tenfold excess, investigated separately; cited from earlier work
[5] = target: T1, human serum albumin (HSA) (Homo sapiens, UniProt P02768); design: method as in PMID 25398250; settings: cited from earlier work
T1 construct: purchased Sigma-Aldrich A8763

[6] = target: T2, apoTf (Homo sapiens, UniProt P02787); assay: Interaction with (apo)Tf: ligand displacement and binding of the intact complex (UV-vis, fluorescence, ultrafiltration); settings: UV–vis and fluorescence, pH 7.40
T2 construct: purchased Sigma-Aldrich T2036
Protocol: Therefore, UV–vis and fluorescence emission spectra of InQ3 were recorded in the presence of increasing amounts of apoTf (Fig. 5a, b). After a short initial phase, the absorbance band of InQ3 is reduced gradually by the addition of the protein, while the development of the new band at lower wavelengths (at ca. 310 nm) refers to the liberation of HQ. Namely, there is a competition for In(III) ion between the ligand and the iron-binding sites of apoTf. Absorbance values depicted at 370 nm and 310 nm (Fig. 5c) saturate roughly to the corresponding values of the free ligand and outline a sigmoidal shape. Fluorescence intensity of the same sample set (Fig. 5b, d) was enhanced and moderately blue shifted (from λmax = 540 nm to 532 nm) until the addition of ca. 0.2 equiv. apoTf. […] Then, by the addition of more apoTf, intensities decreased and λmax shifted further to shorter wavelengths (527 nm). […] Based on this and the results of apoTf quenching (vide supra) protein binding of the non-dissociated complex is presumed. This is further supported by fluorescence lifetime measurements; where new lifetime components τ3 = 4.7 ± 0.2 ns and τ4 = 13.8 ± 0.4 ns appeared for InQ3 in the presence of 0.1 – 0.3 equiv. apoTf (after 1 min waiting time). […] Here, the sigmoid shape of the UV–vis absorbance was seen again (Fig. S5) and the shifted inflection point in comparison to the titration with apoTf underlines the lower In(III) binding capacity of Tf. […]
In the case of InD3, the absorbance bands of the metal complex and apoTf overlap in great extent, however, spectra can be deconvoluted to the spectra of InD3, deferiprone and apoTf (see Fig S6 for details), and molar fractions of the respective species can be calculated (Fig. 6). Ultrafiltration experiments were carried out as well for the InD3 – apoTf system and the non-protein bound LMM fractions were analyzed by UV–vis spectrophotometry (Fig. 6). […] The complex dissociated in line with the addition of apoTf and a practically quantitative displacement of deferiprone seems to take place by the addition of ca. 0.5 equiv. apoTf. […]

[7] = target: T3, apo-transferrin (apoTf) (Homo sapiens, UniProt P02787); assay: Kinetics of the reaction with apoTf followed by UV-vis spectrophotometry; type: binding; settings: pH 7.40 (InCl3: 2 equiv.)
T3 construct: purchased Sigma-Aldrich T2036
Protocol: Firstly, the kinetics of the reaction between apoTf and InCl3 and the complexes was studied by UV–vis spectrophotometry. The reaction of 2 equiv. […] At the same time Harris et al. have observed slow equilibration with InCl3, that was accelerated (to 6 h) in the presence of NTA [18]. In the case of InQ3 and InD3, the progress of apoTf binding could be followed through the ligand bands of the complexes. […] The Ga(III)-analogue GaQ3 interacted within 1 h with apoTf under similar conditions.
For (apo)Tf containing samples, complex concentrations were 20 μM and 0–2.5 equiv. protein was added. Reference spectra for the complexes, ligands and protein were recorded as well. Samples prepared with blood serum contained three-fold diluted serum and 10 μM metal complexes. UV–vis spectra presented in this paper for complexes InD3 or InQ3 are subtracted by the spectrum of reference protein (HSA (apo)Tf or serum) sample in all cases in favour of the better interpretation of the results.

[8] = target: T3, apo-transferrin (apoTf); settings: in the presence of NTA; cited from earlier work

T3 sequence (P02787 20-698): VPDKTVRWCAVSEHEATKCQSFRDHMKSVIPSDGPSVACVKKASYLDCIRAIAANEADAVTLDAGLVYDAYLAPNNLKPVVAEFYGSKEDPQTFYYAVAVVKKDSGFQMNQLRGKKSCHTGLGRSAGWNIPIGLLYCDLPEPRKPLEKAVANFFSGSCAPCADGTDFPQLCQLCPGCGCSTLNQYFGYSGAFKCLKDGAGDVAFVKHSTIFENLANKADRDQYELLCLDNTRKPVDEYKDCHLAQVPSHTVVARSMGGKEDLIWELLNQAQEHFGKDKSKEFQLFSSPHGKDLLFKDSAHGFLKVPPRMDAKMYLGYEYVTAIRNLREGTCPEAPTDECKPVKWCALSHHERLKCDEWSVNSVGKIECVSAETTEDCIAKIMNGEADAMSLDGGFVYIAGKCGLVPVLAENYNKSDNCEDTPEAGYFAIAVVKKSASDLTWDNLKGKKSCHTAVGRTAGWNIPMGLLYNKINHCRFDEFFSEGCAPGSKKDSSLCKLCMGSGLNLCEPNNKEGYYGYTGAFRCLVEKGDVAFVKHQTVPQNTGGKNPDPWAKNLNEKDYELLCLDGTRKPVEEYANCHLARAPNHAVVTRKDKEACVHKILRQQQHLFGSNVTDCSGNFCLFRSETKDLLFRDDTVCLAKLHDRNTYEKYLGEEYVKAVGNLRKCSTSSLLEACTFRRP
T1 sequence (P02768 25-609): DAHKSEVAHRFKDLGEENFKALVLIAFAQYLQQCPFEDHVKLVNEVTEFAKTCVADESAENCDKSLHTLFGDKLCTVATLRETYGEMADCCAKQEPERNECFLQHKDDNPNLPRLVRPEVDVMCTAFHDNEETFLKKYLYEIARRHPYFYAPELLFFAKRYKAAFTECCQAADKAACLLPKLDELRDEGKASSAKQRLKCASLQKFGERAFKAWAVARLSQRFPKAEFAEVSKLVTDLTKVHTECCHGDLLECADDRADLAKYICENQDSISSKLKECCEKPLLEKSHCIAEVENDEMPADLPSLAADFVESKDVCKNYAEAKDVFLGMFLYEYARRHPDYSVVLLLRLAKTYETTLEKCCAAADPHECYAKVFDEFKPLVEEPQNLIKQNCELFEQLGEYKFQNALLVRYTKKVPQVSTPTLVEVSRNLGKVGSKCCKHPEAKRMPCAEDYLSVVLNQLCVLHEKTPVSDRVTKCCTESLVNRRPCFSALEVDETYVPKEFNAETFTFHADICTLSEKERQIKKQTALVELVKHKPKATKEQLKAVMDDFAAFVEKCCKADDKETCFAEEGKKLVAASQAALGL
T2 sequence (P02787 20-698): as the sequence (P02787 20-698) above

Structure (SMILES)	logβ [InL2] [1]	logβ [InL3] [1]	logβ [InL] [1]	pKa ([1]; read-out: pKa (H2L))	pKa ([1]; read-out: pKa (HL))	logβ [InL2] [2]	logβ [InL3] [2]	logβ [InL] [2]	pKa ([2]; read-out: pKa (H2L))	pIn (pM = –log[M(III)]) [3]	pGa* (−log([M] + [M(OH)(1–4)])) [3]	pIn* (−log([M] + [M(OH)(1–4)])) [3]	effect of LMM competitors on the complex [4]	interaction with HSA [5]	pKa ([2]; read-out: pKa (HL))	binding via intermolecular interactions to apoTf (and Tf) [6]	time to reach equilibrium in the reaction with apoTf [7]	equilibration time with Tf [8] [h]
Cc1c(O)c(=O)ccn1C [Deferiprone, 3-Hydroxy-1,2-dimethylpyridin-4(1H)-one]	23.50 ± 0.06^ h	32.66 ± 0.08^ h	13.67 ± 0.04^ h	3.66 ± 0.01	9.72 ± 0.01	23.88 ± 0.06	33.45 ± 0.03	13.72 ± 0.03	3.57 ± 0.02	16.25	8.83^i	7.95	–	–	–	–	–	–
Cc1occc(=O)c1[O-].Cc1occc(=O)c1[O-].Cc1occc(=O)c1[O-].[Ga+3] [GaM3, Tris(3-Hydroxy-2-methyl-4H-pyran-4-onato)gallium(III)]	–	–	–	–	–	–	–	–	–	–	–	–	practically not affected	no interaction	–	–	–	–
Oc1cccc2cccnc12 [HQ, 8-Hydroxyquinoline]	–	–	–	–	–	22.87 ± 0.03	32.64 ± 0.06	13.43 ± 0.06	4.9 ± 0.02	16.48	7.86^j	8.18	–	–	9.63 ± 0.02	can be excluded	–	–
O=S(=O)(O)c1ccc(O)c2ncccc12 [HQS, 8-Hydroyquinoline-5-sulfonate]	21.31 ± 0.07	28.95 ± 0.09	12.64 ± 0.05	3.89 ± 0.02	8.46 ± 0.02	21.18 ± 0.06	29.66 ± 0.06	12.29 ± 0.06	3.7 ± 0.04	16.23	7.92^j	7.93	–	–	8.27 ± 0.04	–	–	–
[Cl-].[Cl-].[Cl-].[In+3] [InCl3, reference compound]	–	–	–	–	–	–	–	–	–	–	–	–	–	–	–	–	ca. 2 h	6
Cc1occc(=O)c1O [Maltol, 3-Hydroxy-2-methyl-4H-pyran-4-one]	18.59 ± 0.03	24.38 ± 0.05	11.03 ± 0.03	–	8.47 ± 0.01	18.78 ± 0.03	25.04 ± 0.06	10.77 ± 0.03	–	14.31	6.00^j	6.01	–	–	8.39 ± 0.02	–	–	–
